{
  "source": "paper PMC9298260",
  "about": "“An Immunomodulatory Peptide Dendrimer Inspired from Glatiramer Acetate” (Angewandte Chemie (International Ed. in English), 2021)",
  "key": {"IL-1β": {"tested_on": "IL-1β", "test": "IL-1β time profile in monocytes, RT-qPCR", "assay_type": "cell-based, human", "details": "50 µg/mL, inactivated and LPS (100 ng/mL) activated", "protocol": "(§1) For closer characterization, we selected dendrimer 1 due to its smaller size and the presence of a cysteine residue that could be used for labelling. […] Furthermore, dendrimer 1 induced the release of IL‐1Ra both with and without LPS activation, but in the latter case the effect was detected only after 18 h incubation (Figure S5e/f).\n(§2) Enriched monocytes after Percoll centrifugation (4×10^6 cells/3 mL well; 6-well plates) were preincubated for 1 h with or without compounds in RPMI-1640 medium supplemented with 10% heat-inactivated FBS, 50 μg/mL streptomycin, 50 U/mL penicillin, 2 mM L-glutamine, and then incubated for the indicated duration. After the incubation cells were collected, total RNA was extracted, reverse transcribed and analyzed by SYBR Green Master Mix. As a housekeeping gene was used Actin 5'-CAC TGG GGG CTA CTG GAC-3', 3'-AACATGGTGTTGGCAGAAACT-5', IL-1Ra 5'-TTCCTGTTCCATTCAGAGACG -3', 3'-CTTCTGGTTAACATCCCAGATTC -5'.\n(§3) Figure S5. Dendrimer 1 affected mRNA levels in both LPS -activated and resting monocytes.\n(§4) Monocytes 4 ×10^6 cells/3 mL in 6 well plates were incubated for indicated time with 50 µg/mL of 1 or without any treatment (NT) (a, c, e); or preincubated for 1 h with 100 ng/mL of LPS, and then with 50 µg/mL of 1 (b, d, f) or without any treatment (NT). […]"}, "TNF-α": {"tested_on": "TNF-α", "test": "TNF-α time profile in monocytes, RT-qPCR", "assay_type": "cell-based, human", "details": "50 µg/mL, LPS (100 ng/mL) activated", "protocol": "as §1, §2, §3, §4"}, "IL-1Ra": {"tested_on": "IL-1Ra", "test": "IL-1Ra time profile / mRNA level in monocytes, RT-qPCR", "assay_type": "cell-based, human", "details": "50 µg/mL, with and without LPS, without LPS detected only after 18 h", "protocol": "Figure 2 Cytokine level of IL‐1Ra in supernatants of primary human monocytes of healthy donors treated with peptide dendrimers, evaluated by ELISA (bars, left vertical axis) and mRNA levels (▴, right vertical axis). […] For mRNA levels evaluation, 2×10^6 cells 3 mL^−1 in 6 well plates were incubated with 50 μg mL^−1 dendrimer or GA for 18 h.\nTo assess the activity requirements for 1 and 4, we performed a structure–activity relationship (SAR) study on the level of induced IL‐1Ra release measured by immunoassay, which we verified in selected cases at the mRNA level by RT‐qPCR (Figure 2).\nas §1\nas §2, with “As a housekeeping gene was used Actin 5'-CAC TGG GGG CTA CTG GAC-3', 3'-AACATGGTGTTGGCAGAAACT-5', IL-1Ra 5'-TTCCTGTTCCATTCAGAGACG -3', 3'-CTTCTGGTTAACATCCCAGATTC -5'.” left out"}, "PBMC": {"tested_on": "PBMC", "assay_type": "cell-based, human", "details": "100-12.5 µg/mL, 24 h, AlamarBlue further 12 h, fluorescence, normalized to untreated, n = 3", "source_text": "To assess the activity requirements for 1 and 4, we performed a structure–activity relationship (SAR) study on the level of induced IL‐1Ra release measured by immunoassay, which we verified in selected cases at the mRNA level by RT‐qPCR (Figure 2). […]\nand centrifuged at the same conditions. PBMC collected from the interface were washed 3 times with supplemented RPMI.\nMonocytes purification using magnetic beads labelling Isolation KIT II\nMonocytes were purified from whole PBMC by negative selection, all procedures were carried out according to manufacturer protocol. Briefly, the non-monocytes were labeled with a cocktail of biotin-conjugated monoclonal antibodies as a primary labeling reagent. Then as a secondary labeling reagent were used anti-biotin microbeads. The mixture was run through the MACS column (MACS, Miltenyi Biotech) in the magnetic field of a MACS Separator (MACS, Miltenyi Biotech). […]\nsupplemented with 10% heat-inactivated FBS, 50 μg/mL streptomycin, 50 U/mL penicillin, 2 mM L-glutamine, and 5 μg/mL. […] Then, plates were measured on a Tecan Infinite M1000 Pro plate reader at λex= 560 nm and λem= 590 nm and value normalized to the […]\nFigure S1. […] After incubation 50 µl of 50% AlamarBlue was added in supplemented medium for additional 12 h, then fluorescence was measured according to manufacture protocol. […]"}, "[1]": {"test": "Circular dichroism spectroscopy", "assay_type": "physicochemical", "details": "100 μg/mL, 8 mM phosphate buffer pH 7.2/7.4", "protocol": "In terms of stereochemistry, activity was lost with D‐enantiomers D‐1 and D‐4, similar to the inactivity reported for D‐enantiomeric GA.[2]\nCircular dichroism (CD) experiments were measured on a Jasco J-715 Spectropolarimeter. All the experiments were performed using Hellma Suprasil 110-QS 0.1 cm cuvettes. For each peptide, the measurements were performed in phosphate buffer (PB, pH=7.2, 8 mM) and in the presence of 5 mM dodecylphosphocholine. The concentration of the peptides was 100.0 μg/mL and each sample was measured using one accumulation. The scan rate was 10 nm/min, pitch 0.5 nm, response 16 sec and bandwidth 1.0 nm. The nitrogen flow was kept >8.5 L/min. After each measurement, the cuvettes were washed successively with 1 M HCl, milli-Q H2O and PB buffer. The baseline was recorded under the same conditions and subtracted manually.\nFigure S12. Circular dichroism spectra of GA, 1 and 4 (100 μg/mL) in 8 mM phosphate buffer at pH 7.4 (a) or in presence of 5 mM dodecylphosphocholine. Percentage of α-helix and β- sheet was processed by Dichroweb using the CONTIN analysis program and reference set 3.\n(1 picture or pasted object on this page, not shown here)"}},
  "data": [
    {"substance": "(KA)8(KAK)4(KEKA)2KAKEAYCA-NH2 [compound 1, G3 peptide dendrimer]", "values": [
      {"measurement": "production of IL-1β", "setting": "IL-1β", "value": "significantly inhibited"},
      {"measurement": "release of TNF-α", "setting": "TNF-α", "value": "inhibited"},
      {"measurement": "release of IL-1Ra, time profile", "setting": "IL-1Ra", "value": "induced"},
      {"measurement": "viability of PBMC / cellular toxicity", "setting": "PBMC", "value": "did not show measurable cellular toxicity"},
      {"measurement": "conformation by CD spectra", "setting": "[1]", "value": "unordered conformation"}
    ]}
  ]
}
